± gives the expanded uncertainty stated by the source.
Experiment: xn = mol fraction of the nth substance listed
Conditions: Liquid; for viscosity: 2 kPa, Falling or rolling sphere viscometry; for speed of sound / mass density: 100 kPa; for speed of sound: Single path-length method; for mass density: Vibrating tube method

**Q.** What does the source list for `CNc1ccccc1` [N-methylaniline] + CCCCn1cc[n+](C)c1.F[P-](F)(F)(F)(F)F?
**A.** viscosity (298.15 K, x2 = 0): 1.94 ± 0.62 mPa·s; viscosity (298.15 K, x2 = 0.1076): 5.42 ± 1.9 mPa·s; viscosity (298.15 K, x2 = 0.2146): 11.47 ± 4 mPa·s; viscosity (298.15 K, x2 = 0.3053): 22.49 ± 6.3 mPa·s; viscosity (298.15 K, x2 = 0.3985): 37.19 ± 9.7 mPa·s; viscosity (298.15 K, x2 = 0.4805): 53.52 ± 12 mPa·s; viscosity (298.15 K, x2 = 0.5766): 71.45 ± 16 mPa·s; viscosity (298.15 K, x2 = 0.6793): 95.21 ± 19 mPa·s; viscosity (298.15 K, x2 = 0.7871): 126.78 ± 33 mPa·s; viscosity (298.15 K, x2 = 0.9009): 187.23 ± 49 mPa·s; speed of sound (298.15 K, x2 = 0): 1564.5 ± 3 m/s; speed of sound (298.15 K, x2 = 0.1076): 1558.7 ± 3.1 m/s; speed of sound (298.15 K, x2 = 0.2146): 1549.8 ± 3.1 m/s; speed of sound (298.15 K, x2 = 0.3053): 1538.2 ± 3.1 m/s; speed of sound (298.15 K, x2 = 0.3985): 1516.1 ± 3.1 m/s; speed of sound (298.15 K, x2 = 0.4805): 1497.1 ± 3.1 m/s; speed of sound (298.15 K, x2 = 0.5766): 1481.9 ± 3.1 m/s; speed of sound (298.15 K, x2 = 0.6793): 1468.8 ± 3.1 m/s; speed of sound (298.15 K, x2 = 0.7871): 1457.9 ± 3.1 m/s; speed of sound (298.15 K, x2 = 0.9009): 1447.2 ± 3.1 m/s; mass density (298.15 K, x2 = 0): 982.7 ± 1 kg/m3; mass density (298.15 K, x2 = 0.1076): 1064.1 ± 1 kg/m3; mass density (298.15 K, x2 = 0.2146): 1128.52 ± 1 kg/m3; mass density (298.15 K, x2 = 0.3053): 1174.31 ± 1 kg/m3; mass density (298.15 K, x2 = 0.3985): 1214.23 ± 1 kg/m3; mass density (298.15 K, x2 = 0.4805): 1243.22 ± 1 kg/m3; mass density (298.15 K, x2 = 0.5766): 1272.38 ± 1.1 kg/m3; mass density (298.15 K, x2 = 0.6793): 1299.48 ± 1.1 kg/m3; mass density (298.15 K, x2 = 0.7871): 1325.04 ± 1.1 kg/m3; mass density (298.15 K, x2 = 0.9009): 1348.44 ± 1.1 kg/m3; viscosity (303.15 K, x2 = 0): 1.73 ± 0.62 mPa·s; viscosity (303.15 K, x2 = 0.1076): 4.31 ± 1.2 mPa·s; viscosity (303.15 K, x2 = 0.2146): 9.24 ± 2.1 mPa·s; viscosity (303.15 K, x2 = 0.3053): 16.65 ± 4.5 mPa·s; viscosity (303.15 K, x2 = 0.3985): 27.2 ± 7.3 mPa·s; viscosity (303.15 K, x2 = 0.4805): 39.53 ± 10 mPa·s; viscosity (303.15 K, x2 = 0.5766): 53.54 ± 13 mPa·s; viscosity (303.15 K, x2 = 0.6793): 74.21 ± 17 mPa·s; viscosity (303.15 K, x2 = 0.7871): 96.09 ± 23 mPa·s; viscosity (303.15 K, x2 = 0.9009): 140.54 ± 34 mPa·s; speed of sound (303.15 K, x2 = 0): 1546.1 ± 3 m/s; speed of sound (303.15 K, x2 = 0.1076): 1542.2 ± 3.1 m/s; speed of sound (303.15 K, x2 = 0.2146): 1534.3 ± 3.1 m/s; speed of sound (303.15 K, x2 = 0.3053): 1523.4 ± 3.1 m/s; speed of sound (303.15 K, x2 = 0.3985): 1502.3 ± 3.1 m/s; speed of sound (303.15 K, x2 = 0.4805): 1484.1 ± 3.1 m/s; speed of sound (303.15 K, x2 = 0.5766): 1469.4 ± 3.1 m/s; speed of sound (303.15 K, x2 = 0.6793): 1456.7 ± 3.1 m/s; speed of sound (303.15 K, x2 = 0.7871): 1445.9 ± 3.1 m/s; speed of sound (303.15 K, x2 = 0.9009): 1435.4 ± 3.1 m/s; mass density (303.15 K, x2 = 0): 978.59 ± 1 kg/m3; mass density (303.15 K, x2 = 0.1076): 1060.11 ± 1 kg/m3; mass density (303.15 K, x2 = 0.2146): 1124.54 ± 1 kg/m3; mass density (303.15 K, x2 = 0.3053): 1170.33 ± 1 kg/m3; mass density (303.15 K, x2 = 0.3985): 1210.27 ± 1 kg/m3; mass density (303.15 K, x2 = 0.4805): 1239.24 ± 1 kg/m3; mass density (303.15 K, x2 = 0.5766): 1268.37 ± 1.1 kg/m3; mass density (303.15 K, x2 = 0.6793): 1295.43 ± 1.1 kg/m3; mass density (303.15 K, x2 = 0.7871): 1320.94 ± 1.1 kg/m3; mass density (303.15 K, x2 = 0.9009): 1344.33 ± 1.1 kg/m3; viscosity (308.15 K, x2 = 0): 1.55 ± 0.61 mPa·s; viscosity (308.15 K, x2 = 0.1076): 3.52 ± 0.98 mPa·s; viscosity (308.15 K, x2 = 0.2146): 7.54 ± 1.7 mPa·s; viscosity (308.15 K, x2 = 0.3053): 12.57 ± 3.2 mPa·s; viscosity (308.15 K, x2 = 0.3985): 20.33 ± 5.1 mPa·s; viscosity (308.15 K, x2 = 0.4805): 29.79 ± 7.1 mPa·s; viscosity (308.15 K, x2 = 0.5766): 40.88 ± 9.1 mPa·s; viscosity (308.15 K, x2 = 0.6793): 53.97 ± 13 mPa·s; viscosity (308.15 K, x2 = 0.7871): 72.45 ± 16 mPa·s; viscosity (308.15 K, x2 = 0.9009): 107.54 ± 24 mPa·s; speed of sound (308.15 K, x2 = 0): 1528.3 ± 3 m/s; speed of sound (308.15 K, x2 = 0.1076): 1525.9 ± 3.1 m/s; speed of sound (308.15 K, x2 = 0.2146): 1518.9 ± 3.1 m/s; speed of sound (308.15 K, x2 = 0.3053): 1508.8 ± 3.1 m/s; speed of sound (308.15 K, x2 = 0.3985): 1488.9 ± 3.1 m/s; speed of sound (308.15 K, x2 = 0.4805): 1471.1 ± 3.1 m/s; speed of sound (308.15 K, x2 = 0.5766): 1456.7 ± 3.1 m/s; speed of sound (308.15 K, x2 = 0.6793): 1444.4 ± 3.1 m/s; speed of sound (308.15 K, x2 = 0.7871): 1433.9 ± 3.1 m/s; speed of sound (308.15 K, x2 = 0.9009): 1423.5 ± 3.1 m/s; mass density (308.15 K, x2 = 0): 974.47 ± 1 kg/m3; mass density (308.15 K, x2 = 0.1076): 1056.11 ± 1 kg/m3; mass density (308.15 K, x2 = 0.2146): 1120.57 ± 1 kg/m3; mass density (308.15 K, x2 = 0.3053): 1166.34 ± 1 kg/m3; mass density (308.15 K, x2 = 0.3985): 1206.32 ± 1 kg/m3; mass density (308.15 K, x2 = 0.4805): 1235.26 ± 1 kg/m3; mass density (308.15 K, x2 = 0.5766): 1264.35 ± 1.1 kg/m3; mass density (308.15 K, x2 = 0.6793): 1291.38 ± 1.1 kg/m3; mass density (308.15 K, x2 = 0.7871): 1316.84 ± 1.1 kg/m3; mass density (308.15 K, x2 = 0.9009): 1340.21 ± 1.1 kg/m3
